ChEMBL document CHEMBL5137097, “A Warhead Substitution Study on the Coronavirus Main Protease Inhibitor Nirmatrelvir” (ACS Med Chem Lett, 2022)

Columns and labels:
[1] = Antiviral activity against Human coronavirus 229E infected in human MRC5 cells assessed as […] cell viability measured after 4 days by CellTiter-Glo luminescence assay; type: functional, cell-based; conditions: MRC5, 96 h
[2] = biological target: Replicase polyprotein 1ab (Severe acute respiratory syndrome coronavirus 2, UniProt P0DTD1); assay: Inhibition of full length SARS-CoV-2 3CLpro expressed in Escherichia coli BL21 (DE3) cells using (DABCYL)KTSAVLQSGFRKM(Glu)(EDANS) peptide as substrate preincubated for 30 mins followed by substrate addition and measured after 1.5 hrs by FRET assay
[3] = biological target: Replicase polyprotein 1ab (Human coronavirus 229E, UniProt P0C6X1); assay: Inhibition of full length C terminal His-tagged Human coronavirus 229E 3CLpro expressed in Escherichia coli Rosetta (DE3) cells using (DABCYL)KTSAVLQSGFRKM(Glu)(EDANS) peptide as substrate preincubated for 30 mins followed by substrate addition and measured after 1.5 hrs by FRET assay
Sequence of Replicase polyprotein 1ab (Human coronavirus 229E, UniProt P0C6X1) (P0C6X1 2966-3267 limits assumed): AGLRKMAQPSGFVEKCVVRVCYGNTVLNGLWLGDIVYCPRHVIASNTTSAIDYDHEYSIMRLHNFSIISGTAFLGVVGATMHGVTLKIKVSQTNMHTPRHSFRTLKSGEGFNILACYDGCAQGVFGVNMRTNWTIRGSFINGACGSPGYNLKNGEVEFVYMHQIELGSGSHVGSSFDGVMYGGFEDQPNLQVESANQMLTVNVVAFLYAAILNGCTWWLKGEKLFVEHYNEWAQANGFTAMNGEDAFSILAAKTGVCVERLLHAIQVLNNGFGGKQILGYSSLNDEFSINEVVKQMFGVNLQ

Row | SMILES | EC50 [1] [nM] | IC50 [2] [nM] | IC50 [3] [nM]
1 | CC(C)(C)[C@H](NC(=O)C(F)(F)F)C(=O)N1C[C@H]2[C@@H]([C@H]1C(=O)N[C@H](C#N)C[C@@H]1CCNC1=O)C2(C)C | 212 | – | –
2 | CC(C)(C)[C@H](NC(=O)C(F)(F)F)C(=O)N1C[C@H]2[C@@H]([C@H]1C(=O)N[C@H](C=O)C[C@@H]1CCNC1=O)C2(C)C | 770 | 10 | 16
3 | CC(C)(C)[C@H](NC(=O)C(F)(F)F)C(=O)N1C[C@H]2[C@@H]([C@H]1C(=O)N[C@@H](C[C@@H]1CCNC1=O)C(=O)COCc1ccccc1)C2(C)C | 513 | 27 | 467
4 | CC(C)(C)[C@H](NC(=O)C(F)(F)F)C(=O)N1C[C@H]2[C@@H]([C@H]1C(=O)N[C@@H](C[C@@H]1CCNC1=O)C(N)=O)C2(C)C | – | > 100000 | > 100000
5 | CC(C)(C)[C@H](NC(=O)C(F)(F)F)C(=O)N1C[C@H]2[C@@H]([C@H]1C(=O)N[C@@H](C[C@@H]1CCNC1=O)C(=O)CO)C2(C)C | 193 | – | 13
6 | CC(C)(C)[C@H](NC(=O)C(F)(F)F)C(=O)N1C[C@H]2[C@@H]([C@H]1C(=O)N[C@@H](C[C@@H]1CCNC1=O)C(=O)C(=O)NC1CC1)C2(C)C | 2360 | 19 | 70
7 | CC(C)(C)[C@H](NC(=O)C(F)(F)F)C(=O)N1C[C@H]2[C@@H]([C@H]1C(=O)N[C@@H](C[C@@H]1CCNC1=O)C(=O)c1nc3ccccc3s1)C2(C)C | 242 | – | 239
8 | CC(C)(C)[C@H](NC(=O)C(F)(F)F)C(=O)N1C[C@H]2[C@@H]([C@H]1C(=O)NCCC1CCNC1=O)C2(C)C (some centres not stated) | – | > 100000 | > 100000
9 | CC(C)(C)[C@H](NC(=O)C(F)(F)F)C(=O)N1C[C@H]2[C@@H]([C@H]1C(=O)N[C@H](CO)C[C@@H]1CCNC1=O)C2(C)C | – | > 100000 | > 100000
10 | COC(=O)[C@H](C[C@@H]1CCNC1=O)NC(=O)[C@@H]1[C@@H]2[C@H](CN1C(=O)[C@@H](NC(=O)C(F)(F)F)C(C)(C)C)C2(C)C | – | > 100000 | > 100000
